Experimental findings from patent EP4653431A1, “PYRAZOLE DERIVATIVE, AND PHARMACEUTICALLY ACCEPTABLE SALT, STEREOISOMER, PHARMACEUTICAL COMPOSITION AND USE THEREOF” (Starg (Wuhan) Pharmaceutical Technology Co., Ltd, priority 2023, dated 2024) are described below.

Molecules are shown by their SMILES. Structures can show the parent of a compound that is named as a salt. Where two headings read alike, the source gives them in different places.

Assay [1] concerns the target T1, CDK1/cyclin B1 (Homo sapiens, UniProt P06493).
T1 construct: purchased Carna Biosciences
Briefly: In vitro CDK1/cyclin B1 enzyme activity assay (TR-FRET). It counts as biochemical. The method, then:
CDK1/cyclin B1 was purchased from Carna Biosciences. Ulight-4E-BP1 peptide, Eu-anti-phospho-tyrosine antibody, and 1X detection buffer were purchased from PerkinElmer. High-purity ATP was purchased from Promega. EDTA was purchased from Sigma. Nivo multimode plate reader (PerkinElmer) was used.
Preparation of Kinase Buffer Solution: The kinase buffer solution consisted 50 mM HEPES, 1 mM EDTA, 10 mM MgCl2, and 0.01% Brij-35, with pH of 7.4.
(§1) The stop solution was prepared by mixing 100 µL of 1 M EDTA stock solution with […] of 1X detection buffer solution and 1725 µL of distilled water.
The enzyme, Ulight-4E-BP1 peptide, ATP, and the inhibitor were diluted using the kinase buffer solution.
The Eu-anti-phospho-tyrosine antibody was diluted to a concentration of 8 nM/L using the detection buffer solution.
The final concentration of DMSO was 4%, and the experiment was set up with duplicate wells. […] The reaction system was incubated at 25 °C for 60 minutes. After the reaction, 5 µL of the stop solution was added to each well, and further reacted at 25 °C for 5 minutes to terminate the reaction. Then 5 µL of Eu-anti-phospho-tyrosine antibody dilution was added to each well, and the mixture was incubated at 25 °C for 60 minutes.
The IC50 value was obtained by fitting the data to a four-parameter curve (using log(inhibitor) vs. response -- Variable slope model in GraphPad Prism).
On the technique in general: Time-resolved FRET reads energy transfer from a long-lived donor to a nearby acceptor.

In assay [2] the test system is OVCAR-3 cells. Briefly: In vitro OVCAR-3 cell viability assay (CellTiter-Glo). Particulars: Homo sapiens, OVCAR-3, 168 h, 7 days incubation. It counts as cell-based. The method, then:
1640 medium, fetal bovine serum, and penicillin/streptomycin antibiotics were purchased from Wisent. CellTiter-Glo (cell viability chemiluminescence assay reagent) was purchased from Promega. The OVCAR-3 cell line was purchased from Nanjing Cobioer Biosciences Co., Ltd. Envision multimode plate reader (PerkinElmer) was used.
OVCAR-3 cells were seeded into a white 384-well plate, with 40 µL of cell suspension containing 300 OVCAR-3 cells per well. The cell plate was incubated overnight in a CO2 incubator.
The test compound was serially diluted 5-fold using a multichannel pipette to the 8th concentration, i.e., from 2000 µM to 0.00512 µM. The experiment was set up with duplicate wells. 78 µL of culture medium was added to an intermediate plate, and 2 µL per well of the gradient-diluted compound was transferred to the corresponding position in the intermediate plate. After mixing, 10 µL per well of the mixture was transferred to the cell plate. The concentration range of the compound transferred to the cell plate was from 10 µM to 0.026 nM. The cell plate was incubated in a CO2 incubator for 7 days. Another cell plate was prepared, and the signal value was read on the day of compound addition to serve as the maximum value (Max in the equation below) for data analysis. 10 µL per well of CellTiter-Glo reagent was added to the cell plate, and the cell plate was incubated at room temperature for 10 minutes to stabilize the luminescence signal. The signal was read using the multimode plate reader.
10 µL per well of CellTiter-Glo reagent was added to the cell plate, and the cell plate was incubated at room temperature for 10 minutes to stabilize the luminescence signal. The signal was read using the multimode plate reader.
The raw data were converted to inhibition rates using the equation (Sample-Min)/(Max-Min)×100%. The IC50 value was obtained by fitting the data to a four-parameter curve (using log(inhibitor) vs. response -- Variable slope model in GraphPad Prism). Table 1 provides the inhibitory activity of the compounds of the present application against OVCAR-3 cell proliferation.

For assay [3], the target named is T2, CDK2/cyclin E1 (Homo sapiens, UniProt P24941).
T2 construct: purchased SignalChem
Nature of the assay: In vitro CDK2/cyclinE enzyme activity assay (TR-FRET). Particulars: CDK2/cyclin E1, 1 mM ATP, 120 min at 25 °C. It counts as biochemical. The method, then: CDK2/cyclin E1 was purchased from SignalChem. Ulight-4E-BP1 peptide, Eu-anti-phospho-tyrosine antibody, and 1X detection buffer solution were purchased from PerkinElmer. High-purity adenosine triphosphate (ATP) was purchased from Promega. Ethylenediaminetetraacetic acid (EDTA) was purchased from Sigma. Nivo multimode plate reader (PerkinElmer) was used.
Preparation of Kinase Buffer Solution: The kinase buffer solution consisted 50 mM HEPES, 1 mM EDTA, 10 mM MgCl2, and 0.01% Brij-35, with pH of 7.4. 2.38 g HEPES, 58 mg EDTA, 406 mg MgCl2, and 20 mg Brij-35 were added to 200 mL buffer, and the pH was adjusted to 7.4.
as §1
The enzyme, Ulight-4E-BP1 peptide, ATP, and the inhibitor were diluted using the kinase buffer solution. The Eu-anti-phospho-tyrosine antibody was diluted to a concentration of 8 nM/L using the detection buffer solution. The test compound was serially diluted 5-fold using a multichannel pipette to the 8th concentration, i.e., from 4 µM to 0.0512 nM. The final concentration of DMSO was 4%, and the experiment was set up with duplicate wells. 2.5 µL of each gradient concentration of the inhibitor, 5 µL of CDK2/cyclin E1 enzyme (10 ng), and 2.5 µL of a mixture of substrate and ATP (4 mM ATP, 100 nM Ulight-4E-BP1 peptide) were added to a microplate, resulting in a final concentration gradient of the compound from 1 µM to 0.0128 nM, with final ATP and substrate concentrations of 1 mM and 25 nM, respectively. The reaction system was incubated at 25 °C for 120 minutes. After the reaction, 5 µL of the stop solution was added to each well, and further reacted at 25 °C for 5 minutes to terminate the reaction. Then 5 µL of Eu-anti-phospho-tyrosine antibody dilution was added to each well, and the mixture was reacted at 25 °C for 60 minutes. Data were collected using the PerkinElmer Nivo multimode plate reader in TR-FRET mode (excitation wavelength: 320 nm; emission wavelengths: 615 nm and 665 nm).
The raw data were converted to inhibition rates according to the equation (Sample-Min)/(Max-Min)×100%. The IC50 value was obtained by fitting the data to a four-parameter curve (using log(inhibitor) vs. response -- Variable slope model in GraphPad Prism).

Setting [4] is: CDK1/cyclin B1, 1 mM ATP, 60 min at 25 °C, Table 1, read-out: CDK1 IC50.
Where [5] appears, read: exact values stated in the text below Table 1, read-out: IC50 against CDK1.

The term IC50 denotes the midpoint of a concentration-inhibition curve.

T1 sequence (P06493 whole entry): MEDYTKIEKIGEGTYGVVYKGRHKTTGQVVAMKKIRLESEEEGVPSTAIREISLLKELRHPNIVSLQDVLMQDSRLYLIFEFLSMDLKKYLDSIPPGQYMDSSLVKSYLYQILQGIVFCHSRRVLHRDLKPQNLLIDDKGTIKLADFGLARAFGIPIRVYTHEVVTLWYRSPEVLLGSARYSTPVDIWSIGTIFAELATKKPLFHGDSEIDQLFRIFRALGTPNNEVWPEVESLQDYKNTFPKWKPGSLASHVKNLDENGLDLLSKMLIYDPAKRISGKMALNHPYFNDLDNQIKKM
T1 sequence (P14635 whole entry partner): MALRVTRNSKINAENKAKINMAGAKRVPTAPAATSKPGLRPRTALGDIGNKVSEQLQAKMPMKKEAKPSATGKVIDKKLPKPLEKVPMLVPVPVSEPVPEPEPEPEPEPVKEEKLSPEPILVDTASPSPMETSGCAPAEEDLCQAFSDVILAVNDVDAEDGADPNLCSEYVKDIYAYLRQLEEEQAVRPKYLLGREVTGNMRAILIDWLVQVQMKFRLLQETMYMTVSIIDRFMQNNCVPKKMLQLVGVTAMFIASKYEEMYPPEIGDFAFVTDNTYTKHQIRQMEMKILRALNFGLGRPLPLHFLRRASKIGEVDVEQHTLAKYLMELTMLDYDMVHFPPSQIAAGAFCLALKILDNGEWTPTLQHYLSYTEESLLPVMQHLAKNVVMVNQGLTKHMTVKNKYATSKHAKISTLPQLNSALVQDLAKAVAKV

Take `CON(C)Cc1nn2ccnc(Nc3cc([C@H]4CC[C@@H](OC(=O)NC(C)C)C4)[nH]n3)c2c1C` [Formate salt of compound 2]: the IC50 is above 1000 nM in assay [1] (setting [4]), 4080 nM in assay [1] (setting [5]), 124 nM in assay [2] and 4.1 nM in assay [3].
`CONCc1nn2ccnc(Nc3cc([C@H]4CC[C@@H](OC(=O)NC(C)C)C4)[nH]n3)c2c1F` [Compound 5]: the 50% inhibitory concentration (IC50) in assay [1] (setting [4]) is above 1000 nM; in assay [1] (setting [5]) it was 1500 nM; in assay [2], 309 nM; in assay [3], 6.8 nM.
In the same order, the values of `CON(C)Cc1nn2ccnc(Nc3cc([C@H]4CC[C@@H](OC(=O)NC(C)C)C4)[nH]n3)c2c1F` [Compound 6] are above 1000 nM, 3490 nM, 104 nM and 7.4 nM.
